From paper PMC11718441, “Bis-3-chloropiperidines: a novel motif for anthelmintic drug design” (RSC Advances, 2025)
≈ marks a conversion by molar mass, not a printed value. Entries after “also recorded” stand apart in the source; their conditions may differ. Like-named read-outs stand apart in the source and are kept apart here.

Experiments:
[1] = system: C. elegans strains N2 and DC19; test: MMIC against C. elegans, strains N2 and DC19 reported together or strain not stated; assay type: cell-based; details: Caenorhabditis elegans, 48 h
Description: (§1) The cuticle of C. elegans strain DC19 is known to be more permeable for small molecules compared to the wildtype N2.[30] DC19 is thereby considered an informative drug-sensitive test organism. In our assays, we determined the minimum mobility inhibitory concentration (MMIC) as a proxy for anthelmintic activity. […] In contrast, MMICs of some small molecule anthelmintics such as albendazole, mebendazole or PF-1022A were lower for DC19 (Fig. S1 ^†). […]
(§2) 2.2 In vitro tests against Caenorhabditis Elegans
(§3) The minimal motility inhibitory concentration (MMIC) of compounds 1-22 against C. elegans was determined as described before.3 Both strains, C. elegans N2 and DC19 were treated identically. Briefly, pre-cultures of C.elegans were kept on NGM agar plates infused with auxotrophic E.coli OP50 as food source.4 After 4 days the plates contained sufficient gravid worms, respectively. Worms were washed from the plates with M9 buffer using wide bore pipette tips. Egg preparation was carried out by treating the harvested worms with an alkaline hypochlorite solution (5 M NaOH + 5 % NaOCl 1:2) in polypropylene tubes. Larvae and adult […]
(§4) We carried out 3 washing steps (M9 buffer) to remove carry-over hypochlorite solution. Subsequently, the eggs were incubated overnight in NGM broth on a rotator to yield synchronized hatched L1/L2 larvae. The larvae solution was adjusted to 100 worms/mL and supplemented with cholesterol (5 µg/mL), carbenicillin (25 µg/mL) and E.coli OP50 (0.5%). This assay solution was distributed into 96 well plates and incubated with a dilution series of compounds 1-22 (64-0.5 µg/mL). An additional eight-point dilution series of ivermecin (40 – 0.3 ng/mL) was used as positive control on each assay plate. Solvent background was controlled by supplementation of pure DMSO without any compound. Assays were incubated for 2 days at room temperature. Finally, a cell imaging multimode reader (Cytation™ 5) was used to record short videos (1.5 seconds) of each individual test well. The videos were used to evaluate the worm motility.

Schistosoma mansoni = test: In vitro tests against Schistosoma mansoni (vitality parameters of adult worm pairs); assay type: cell-based; details: for lethal effects: after seven days; for sucker detachment: after three days; for Effect on S. mansoni: 10 and 20 μM, up to 7 days, Det: detachment of suckers, Mot: motility reduction, Sep: pair separation; for activity against S. mansoni (100% effect strength in one parameter within 7 days = active): 10 or 20 μM
Method: Subsequently, we tested whether compounds with nematocidal activity display a broader activity also against parasitic flatworms. To this end, in vitro tests against the blood fluke S. mansoni were conducted (Fig. 4). The worms were incubated in presence of 10 and 20 μM of compounds 1–22 and phenotypic vitality parameters (separation of worm pairs, detachment of suckers from the bottom of the well and weakening of body movements) were assessed as previously described.[31] Compounds reaching 100% effect strength in one of the parameters within 7 days were considered active. Reduction of motility is considered most relevant for antischistosomal drug candidates.[32] In addition, loss of sucker activity would make parasites drifting off from their host habitat (mesenteric veins) and with pair separation, the production of pathology-causing eggs eventually ceases.[33] […] For some molecular targets e.g. glutamate and GABA chloride channels (ivermecin, abamectin) and β-tubulin (albendazole, mebendazole) the C. elegans assays results were transferable to Schistosoma, while for others e.g. acetylcholin mimetic (levamisole) the C. elegans MMIC was not predicative (Fig. S1 ^†).
2.2 Parasitological studies
Animal experiments were performed in accordance with Directive 2010/63/EU on the protection of animals used for scientific purposes and the German Animal Welfare Act. The experiments were approved by the Regional Council (Regierungspraesidium) Giessen (V54 – […]
A Liberian strain of S. mansoni was maintained in the freshwater snail Biomphalaria glabrata as intermediate host and Syrian hamsters (Mesocricetus auratus) as final host (Janvier Labs, France).5,6 Hamsters were infected at 8 weeks of age with 1,750 cercariae by using the paddling method.7 Adult worms were collected at 46 days p.i. by hepatoportal perfusion and cultured in M199 medium (Sigma-Aldrich, Germany) supplemented with 10% Newborn Calf Serum (NCS, Sigma-Aldrich), 1% 1 M HEPES (ThermoFisher Scientific, USA) and 1% ABAM solution (10,000 units/ml penicillin, 10 mg/ml streptomycin and […] amphotericin B; Sigma-Aldrich, Germany) at 37 °C, 5% CO2 and humidified atmosphere.
2.2.3. In vitro tests against Schistosoma mansoni
Test compounds were added at 10 µM or 20 µM in supplemented M199 medium to schistosomes (5 worm pairs per replicate) followed by a 7 d in vitro culture. Worms receiving the solvent DMSO at equal dilution served as negative control. The following vitality parameters were assessed every 24 h by bright field microscopy using a Leica DM IL inverted microscope and x2.5 objective lens: separation of worm pairs into male and female worms; detachment of suckers from the bottom; and weakening of body movements. Worm motility was scored as described previously, 8 with the scores 3 (normal motility), 2 (reduced motility), 1 (minimal and sporadic movements), 0 (no movements within 20 sec; dead worms). An average score of all worms per well was calculated to obtain a motility score. An average motility score of 0, separation of all pairs or detachment of all worms per well was considered

[2] = system: Escherichia coli ATCC35218; test: microbe, parasite or virus in culture; assay type: cell-based; details: ATCC35218, read-out: MIC Ec
Method: (§5) The minimum inhibitory concentration (MIC) of the synthesized compounds was initially determined against three microbial indicator strains (Escherichia coli ATCC35218, […] ATCC33592, Septoria tritici MUCL45408). […]
(§6) 2. Microbial and parasitological studies
(§7) The minimum inhibitory concentration (MIC) of the synthesized compounds was determined against three microbial indicator strains (E. coli ATCC35218, S. aureus ATCC33592 and S. tritici MUCL45408) as previously described.1,2 All samples were dissolved in DMSO and tested in triplicate. Briefly, a pre-culture of E. coli and S. aureus was prepared by incubating the strains in cation adjusted Mueller Hinton 2 broth (Becton Dickinson, Sparks, NV, USA) at 37°C and 180 rpm overnight. The cell density of adjusted to 5 × 10^5 cells/mL before assays were incubated at 37 °C, 180 rpm and 85% rH. Three distinct dilution series of standard antibiotics (gentamicin, rifampicin, […]
(§8) medium without test compound or positive control was used as negative control.
(§9) Medium background was averaged from 5 replicates. The turbidity of each well was […]

S. aureus ATCC33592 = test: microbe, parasite or virus in culture; assay type: cell-based; details: Staphylococcus aureus, ATCC33592, read-out: MIC Sa
Method: as §5, §6, §7, §8, §9

in vitro = details: dog
MDCK II cells = test: In vitro cytotoxicity, CellTiter-Glo, MDCK II cells; details: 100 μM; for MDCKII cytotoxicity: 48 h, cell viability less than 80% relative to DMSO control = cytotoxic
[3] = system: Septoria tritici MUCL45408; test: Minimum inhibitory concentration (MIC), S. tritici (ATP quantification); assay type: cell-based; details: Zymoseptoria tritici, MUCL45408, 96 h, read-out: MIC St
Method: as §5, §6
The minimum inhibitory concentration (MIC) of the synthesized compounds was determined against three microbial indicator strains (E. coli ATCC35218, S. aureus ATCC33592 and S. tritici MUCL45408) as previously described.1,2 All samples were dissolved in DMSO and tested in triplicate. Briefly, a pre-culture of E. coli and S. aureus was prepared by incubating the strains in cation adjusted Mueller Hinton 2 broth (Becton Dickinson, Sparks, NV, USA) at 37°C and 180 rpm overnight. The cell density of adjusted to 5 × 10^5 cells/mL before assays were incubated at 37 °C, 180 rpm and 85% rH. Three distinct dilution series of standard antibiotics (gentamicin, rifampicin, and tetracycline) were used as positive controls on each assay plate. Inoculated medium without test compound or positive control was used as negative control.
Medium background was averaged from 5 replicates. The turbidity of each well was measured with a microplate spectrophotometer at 600 nm (LUMIstar® Omega, BMG Labtech) and growth inhibition was calculated relative to the absorption of the controls. For S. tritici MUCL45408 inoculated at a density of 1 × 10^5 cells/mL in potato […]
dextrose medium. Septoria assay plates were incubated for 4 days at 25 °C, 180 rpm and 85% rH. Tebuconazole, amphotericin B, and nystatin were used as positive controls. Cell viability was evaluated via ATP quantification (BacTiter-Glo™, Promega GmbH, Walldorf, Germany) according to the manufacturer’s instructions. […]

C. elegans DC19 = test: whole plant or invertebrate; assay type: cell-based, Caenorhabditis elegans; details: Caenorhabditis elegans, 48 h, read-out: MMIC DC19
Description: as §1, §2, §3, §4

C. elegans N2 = test: whole plant or invertebrate; assay type: cell-based, Caenorhabditis elegans; details: Caenorhabditis elegans, 48 h, read-out: MMIC N2
Description: as §1, §2, §3, §4

[4] = C. elegans, read-out: MMIC N2 and DC19

| Compound | minimal effective concentration [1, 4] [µg/mL] | lethal effects (Schistosoma mansoni; 20 μM) | sucker detachment (Schistosoma mansoni; 20 μM) | Effect on S. mansoni (Schistosoma mansoni) | activity against S. mansoni (100% effect strength in one parameter within 7 days = active) (Schistosoma mansoni) | MIC [2] [µg/mL] | MIC (S. aureus ATCC33592) [µg/mL] | CC50 (in vitro) [µM] | cytotoxicity against MDCK II (in words) (MDCK II cells) | MDCKII cytotoxicity (MDCK II cells) | MIC [3] [µg/mL] | minimal effective concentration (C. elegans DC19) [µg/mL] | minimal effective concentration (C. elegans N2) [µg/mL] | sucker detachment of Schistosoma worm pairs (Schistosoma mansoni; 10 μM) | motility score (Schistosoma mansoni; score 3 normal motility to 0 dead, paragraph on 20 μM) | minimal effective concentration ([1]; read-out: MMIC N2 and DC19, C. elegans) [µg/mL] | separation of worm pairs (Schistosoma mansoni; 10 μM, after 3 days) | detachment of suckers and pair separation (Schistosoma mansoni; 20 μM, after 7 days incubation) |
| --- | --- | --- | --- | --- | --- | --- | --- | --- | --- | --- | --- | --- | --- | --- | --- | --- | --- | --- |
| COc1cc(CN2CC(Cl)CC(C)(C)C2)cc(CN2CC(Cl)CC(C)(C)C2)c1 (stereo not shown) [Compound 2] | < 20 | lethal effect | sucker detachment already after three days | Det, Sep, Mot, Lethal | showed an effect on S. mansoni; also recorded: active at 20 μM | > 64 | > 64 | 83 | did not exhibit cytotoxic properties | − (“−” (not toxic)) | 64 (≈ 150 µM) |  |  |  |  |  |  |  |
| COC(=O)c1cc(CN2CC(Cl)CC(C)(C)C2)cc(CN2CC(Cl)CC(C)(C)C2)c1 (stereo not shown) [Compound 4] | < 20 |  |  |  | no activity | > 64 | > 64 | 205 |  | − (“−” (not toxic)) | > 64 | 16 | 16 |  |  |  |  |  |
| CC1(C)CC(Cl)CN(Cc2cc(CN3CC(Cl)CC(C)(C)C3)cc([N+](=O)[O-])c2)C1 (stereo not shown) [Compound 5] | < 20 |  |  | Det, Sep, Lethal | showed an effect on S. mansoni; also recorded: active at 10 μM | > 64 | > 64 | > 1000 |  | − (“−” (not toxic)) | > 64 | 16 | 16 | full sucker detachment | 1–1.2 |  |  |  |
| COc1ccc(CN2CC(Cl)CC(C)(C)C2)c(CN2CC(Cl)CC(C)(C)C2)c1 (stereo not shown) [Compound 9] |  | lethal effects | sucker detachment already after three days | Det, Sep, Lethal | Schistosoma-specific; also recorded: active at 20 μM | > 64 | > 64 | 70 | cytotoxic | + (“+” (toxic)) | > 64 | 64 | > 64 |  |  | 64 | separation of all worm pairs |  |
| COC(=O)[C@H](CCCCN1CC(Cl)CC(C)(C)C1)N1CC(Cl)CC(C)(C)C1 (stereo partly shown) [Compound 11] |  |  |  | Det, Sep | Schistosoma-specific; also recorded: active at 20 μM | > 64 | > 64 | 123 |  | − (“−” (not toxic)) | > 64 | > 64 | > 64 |  |  |  |  | detachment of suckers and pair separation |
| CC1(C)CC(Cl)CN(Cc2cc(CN3CC(Cl)CC(C)(C)C3)cc(CN3CC(Cl)CC(C)(C)C3)c2)C1 (stereo not shown) [Compound 21] | < 20 |  |  |  | did not affect Schistosoma | > 64 | > 64 | > 1000 | did not exhibit cytotoxic properties | − (“−” (not toxic)) | > 64 |  |  |  |  |  |  |  |
